For assay [1], the system named is S49 mouse lymphoma cells. Nature of the assay: cAMP formation in S49 lymphoma cells (β-adrenergic agonist activity). Type of assay: cell-based. Conditions: for EC50: Mus musculus, catecholamine derivative, read-out: KA (concentration of the catecholamine for approximately half maximal stimulation of cAMP concentration); for activity in words / activity greater than that of isoproterenol: S49 cell assay; for activity greater than that of isoproterenol: relative to isoproterenol. The text has this: The in vitro testing of cAMP formation in S49 lymphoma cells is a well documented and accepted test for indicating and anticipating β-adrenergic activity in the mammalian body.
Such testing procedures and their significance has been set forth in a number of prior publications, e.g. Shear et al., J. Biol. Chem.; 251, 7572 (1976); Coffino, et al., In Vitro, 14, No. 1, 140 et.seq. (1978); and in Johnson, et al.; Molecular Pharmacology, 15, 16-27 (1978). The tests measure increased cyclic adenosine monophosphate (cAMP) concentration in the S49 cells. In Table 1, KA indicates the concentration of the catecholamine for approximately half maximal stimulation of cAMP concentration. Emax is a measure of the maximal response (cAMP concentration) of the S49 cells to the respective catecholamines regardless of how high the concentration of the catecholamines may become. The Table compares the response of the cells to the particular catecholamine derivatives with the cells' response to isoproterenol. Thus a measure of the relative biological activity can be obtained.

Assay [2] addresses T1, C6 cells (Rattus norvegicus, UniProt P18090).
T1 construct: endogenous in cells; host or cells: C6 cells
The assay can be described thus: KD in C6 cells. Type of assay: binding. Conditions: relative to isoproterenol. The text has this: (§1) A large dependence of activity on the length of the methylene chain i.e., (CH2)n is seen with the toluides (Compounds 10-14). Of the compounds noted, peak activity is seen in the case of n=4 (Compound 12), which has an activity approximately two orders of magnitude greater than that of isoproterenol.

Assay [3] deals with T2, S49 cells (Mus musculus, UniProt P18762).
T2 construct: endogenous in cells; host or cells: S49 lymphoma cells
Nature of the assay: KD in S49 cells. Type of assay: binding. Conditions: relative to isoproterenol.
Description: as §1

Assay [4] concerns rats. The assay can be described thus: blood pressure and heart rate changes in rats on administration of the drug. Type of assay: in vivo. Particulars: rat, relative to isoproterenol.

T1 sequence (P18090 whole entry): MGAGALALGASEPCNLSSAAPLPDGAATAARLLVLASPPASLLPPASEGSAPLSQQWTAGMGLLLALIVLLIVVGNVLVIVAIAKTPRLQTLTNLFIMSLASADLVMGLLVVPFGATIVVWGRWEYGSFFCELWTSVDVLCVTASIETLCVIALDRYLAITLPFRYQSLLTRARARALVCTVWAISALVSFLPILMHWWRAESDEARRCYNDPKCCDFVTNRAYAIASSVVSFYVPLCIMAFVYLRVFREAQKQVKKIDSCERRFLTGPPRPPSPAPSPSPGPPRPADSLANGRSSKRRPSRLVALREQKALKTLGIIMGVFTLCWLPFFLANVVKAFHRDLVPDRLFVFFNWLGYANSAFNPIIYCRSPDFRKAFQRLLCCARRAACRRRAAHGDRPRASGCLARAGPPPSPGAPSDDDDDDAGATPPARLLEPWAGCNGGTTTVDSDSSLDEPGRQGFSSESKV
T2 sequence (P18762 whole entry): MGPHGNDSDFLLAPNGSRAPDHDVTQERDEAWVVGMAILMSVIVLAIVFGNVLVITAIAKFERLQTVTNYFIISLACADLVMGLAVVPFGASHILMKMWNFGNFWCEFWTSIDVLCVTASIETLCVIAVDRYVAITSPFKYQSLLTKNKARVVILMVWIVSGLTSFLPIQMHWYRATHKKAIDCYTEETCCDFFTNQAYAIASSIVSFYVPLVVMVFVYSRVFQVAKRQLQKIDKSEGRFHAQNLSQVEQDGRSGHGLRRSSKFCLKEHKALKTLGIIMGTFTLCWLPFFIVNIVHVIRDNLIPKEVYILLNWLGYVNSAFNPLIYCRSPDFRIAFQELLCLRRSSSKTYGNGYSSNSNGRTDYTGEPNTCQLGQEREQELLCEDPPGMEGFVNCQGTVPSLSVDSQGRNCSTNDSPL

Take `CC(C)NCC(O)c1ccc(O)c(O)c1` (racemic) [d,l-Isoproterenol, reference compound]: the “KA of d,l-isoproterenol” value in assay [1] (S49 lymphoma cells, comparison with the derivative on the same table line) came out at 45 pM.
As to `CC(CCC(=O)O)NCC(O)c1ccc(O)c(O)c1` (stereo not shown) [Compound 6], the EC50 in assay [1] (S49 lymphoma cells) was found to be 1600 nM.
For the compound `CC(CCCC(=O)O)NCC(O)c1ccc(O)c(O)c1` (stereo not shown) [Compound 7], the EC50 in assay [1] (S49 lymphoma cells) was 370 nM.
Turning to `CC(CCCCC(=O)O)NCC(O)c1ccc(O)c(O)c1` (stereo not drawn) [Compound 8, 6-(β-3,4-Dihydroxyphenyl-β-hydroxy)-ethylamino heptanoic acid], the EC50 in assay [1] (S49 lymphoma cells) came to 350 nM.
As to `CC(CCCCCC(=O)O)NCC(O)c1ccc(O)c(O)c1` (stereo not shown) [Compound 9], the EC50 in assay [1] (S49 lymphoma cells) came out at 350 nM.
`Cc1ccc(NC(=O)CCC(C)NCC(O)c2ccc(O)c(O)c2)cc1` (stereo not shown) [Compound 10]: in assay [1] (S49 lymphoma cells), the EC50 came to 3.5 nM.
`Cc1ccc(NC(=O)CCCC(C)NCC(O)c2ccc(O)c(O)c2)cc1` (stereo not shown) [Compound 11]: the EC50 in assay [1] (S49 lymphoma cells) came to 8 nM.
For the compound `Cc1ccc(NC(=O)CCCCC(C)NCC(O)c2ccc(O)c(O)c2)cc1` (stereo not drawn) [Compound 12, 6-(β-3,4-dihydroxyphenyl-β-hydroxy)-ethylamino Heptanoic Acid p-Toluide], the “KD lower than for isoproterenol” value in assay [2] and in assay [3] was 2 orders of magnitude each time. Moreover, the EC50 in assay [1] (S49 lymphoma cells) was 0.056 nM. Further, the activity in words result in assay [1] was “peak activity”. The “times more active than isoproterenol” value in assay [4] is reported as 50-70 times.
In the case of `Cc1ccc(NC(=O)CCCCCC(C)NCC(O)c2ccc(O)c(O)c2)cc1` (stereo not shown) [Compound 14], the EC50 in assay [1] (S49 lymphoma cells) turned out to be 22 nM.
For the compound `CCCCc1ccc(NC(=O)CCCCC(C)NCC(O)c2ccc(O)c(O)c2)cc1` (stereo not shown) [Compound 15], in assay [1], the “activity greater than that of isoproterenol” value is reported as “at least 3 orders of magnitude”.
Take `COc1ccc(NC(=O)CCCCC(C)NCC(O)c2ccc(O)c(O)c2)cc1` (stereo not shown) [Compound 16]: in assay [1] (S49 lymphoma cells), the EC50 came out at 13 nM. Further, the activity in words entry in assay [1] is reported as “approximately the same activity as isoproterenol”.
On to `CC(CCCCC(=O)Nc1ccc(C(F)(F)F)cc1)NCC(O)c1ccc(O)c(O)c1` (stereo not shown) [Compound 17], for which the “activity greater than that of isoproterenol” value in assay [1] is “at least 3 orders of magnitude”.
In the case of `CCCCNC(=O)CCCCC(C)NCC(O)c1ccc(O)c(O)c1` (stereo not shown) [Compound 19], the EC50 in assay [1] (S49 lymphoma cells) is 0.18 nM.
With `CC(CCCCC(=O)NC1CCCCC1)NCC(O)c1ccc(O)c(O)c1` (stereo not shown) [Compound 20], the EC50 in assay [1] (S49 lymphoma cells) came out at 0.26 nM.

The values are drawn from patent publication US4337207A, “Biologically active catecholamine derivatives” (Regents of the University of California, priority 1980, dated 1982).
